Read-outs that look alike come from different tables or passages of the source. Each block holds one compound with its values, some of them ahead of it.
Tests used:
HeLa cells = experiment: HeLa cell cytotoxicity, trypan blue exclusion; assay type: cell-based, human; settings: for HeLa cell toxicity: AOG or dodecanedial alone, Figure 5b; for percentage of cells intact: 400 µM, each alone, two hours, Figure 5a
Procedure: These cells were grown in suspension in Joklik's median supplemented with calf serum, centrifuged and then taken up into Dulbecco's modified Eagles medium (DMEM) without serum. Cell suspensions containing 2-4 x 10⁶ cell/ml in DMEM containing 1% ethanol were incubated at 37°C, with or without decanal. AOG, or combinations thereof. Cell membrane damage was measured by hand counting of cells using trypan blue exclusion as the criterion.

[1] = J Pharm Sci (1971) 60:1128-1131; cited from earlier work
Monilinia sp = experiment: Fungal growth on YPD medium; assay type: cell-based; settings: 2 mM of either reagent alone
Procedure: Similar results are obtained using Candida albicans, a human infective agent, as the target organism. […] Also, the growth of Monilinia sp, the causal agent in peach brown rot, is inhibited by the combination of the foregoing reagents, but not by either individually. No growth is observed after four days on YPD medium when 250 µM each of the pyridine-2-carboxaldehyde and 2-hydrazinopyridine are included.

S. cerevisiae YP52 = experiment: Growth inhibition of yeast by PC and HP in YPD medium, roller drum; assay type: cell-based; settings: each alone, concentrations below 2 mM, 20 hours at 30°C in YPD medium
Procedure: Pyridine-2-carboxaldehyde (PC) and 2-hydrazino-pyridine (HP) are each alone nontoxic to S. cerevisiae YP52 yeast at concentrations below 2 mM when provided over 20 hours at 30°C in YPD medium in a roller drum. However, when supplied together, these compounds are capable of inhibiting the growth of S. cerevisiae YP52 at 30 °C in YPD. When placed together in the medium at concentrations of 1 mM + 1 mM and at 0.5 mM + 0.5 mM. substantial inhibition occurs. The adduct. pyridino-2-carboxaldehyde (2-pyridyl hydrazone) (PCPH) of the formula: [drawing 25] is a chelator and has a structural similarity to 2,2': 6',2'' terpyridine which is a known cytotoxin (McFadyen et al, J Med Chem (1985) 28:1113-1116). The second order rate constant for this reaction is 2 l/mol-sec at 37 °C, pH6, in phosphate-buffered saline.

some tumors = settings: on a weight basis; Arnold et al, Proc Natl Acad Sci USA (1979); cited from earlier work
Erythrocytes = experiment: Antidote to self assembly, erythrocyte lysis; assay type: cell-based
Procedure: In this example, cyclohexanone is used as an antidote to prevent the assembly of AOG plus decanal to produce the biologically active agent DIOG, which was described in a previous example. Erythrocytes, prepared as above, were exposed to 20 µM AOG plus 20 µM decanal.

S cerevisiae = experiment: Yeast growth in YPD medium with AOG and decanal; assay type: cell-based; settings: 24 hours
Procedure: The effect of the combination of AOG and decanal on yeast was also determined. S cerevisiae in YPD medium at cell densities of 10⁵-10⁶ cell/ml used as starting concentrations. When no reagents were added to the medium, the cell density increased about 90 fold in 24 hours. […] When 10 µg/ml decanal plus 44 µg/ml AOG were added in combination, all yeast died after 24 hours.

human erythrocytes = experiment: Erythrocyte lysis (light scattering, hemoglobin release, cell counts); assay type: cell-based; settings: for time for which erythrocytes are stable: solutions containing either DAPG or CHD alone
Procedure: The putative product shown in Reaction Scheme 1 is evidently cytotoxic, since a suspension of human erythrocytes in a solution containing both CHD and DAPG in phosphate buffered saline is 95% lysed or aggregated within 1-14 hours under physiological conditions (the precise time depending on the concentrations) whereas erythrocytes are stable for at least 24 hours in plain PBS, and also in solutions containing either DAPG or CHD alone. In addition, when erythrocytes are incubated with mixtures of CHD and DAPG, a substantial induction period is observed during which no lysis or aggregation occurs, due to the time lag in formation of the cytotoxic material. Whether lysis or aggregation results depends on relative concentration; excess CHD results in lysis, equimolar concentrations in aggregation. The cytotoxicity may be due to the formation of the polycation, analogous to the known antitumor activity of poly-(L-lysine); Arnold, L. J. Proc. Natl Acad Sci (supra).
For erythrocytes blood was collected and stored with KEDTA at 4°C and erythrocytes prepared within 48 hours by centrifuging three times in phosphate-buffered saline (PBS, pH 7.4). Suspensions containing 3 x 10⁷ cells/ml were prepared in PBS containing 1% EtOH, but no […] cations, and incubated at 37°C with the compounds or mixtures to be tested.
On the other hand, while a mixture of 28 µM AOG and 28 µM decanal (reagent grade, Aldrich Chemical Co.) results in less than 10% lysis within the same 20 minute time frame, as the time of incubation increases, lysis increases also, as indicated by hemoglobin release measured by (1) light absorption of the supernatant at 400 nm. (2) decrease of light scattering by the cells at 700 nm, and (3) direct cell counts using a microscope. […] Suspensions of 3.5 x 10⁷ cells/ml prepared as above in PBS (1% EtOH, no divalent cations, pH 7.4) were incubated at 37°C, and cell lysis was followed by observing the decrease in absorbance at 700 nm. For 0% lysis, A₇₀₀ is 1.0; 0.2 for 100% lysis).
The curves were calculated using a nonlinear least squares fitting algorithm (Arc, H, et al, Statistical Methods (1970) Harper & Row, pp. 100-111) and based on a modified Hill equation (Cantor, C.R. et al, supra) wherein percent hemolysis is calculated as 100% divided by (1+(K/C))^α [formula] . In this equation, K is the median effect concentration, C is the concentration of DIOG (or of decanal and AOG), and α is the Hill constant.

S. typhimurium = experiment: Filter disk growth inhibition on agar LB plates at pH 7.4 and pH 5; assay type: cell-based, Salmonella typhimurium; settings: 20 nanomoles on filter disk
Description: The formation of the foregoing chelate is also effective in inhibiting the growth of Salmonella typhimurium. This inhibition can be tested using agar disks or in culture suspension. The effect of the formation of chelate can be studied in this regard by conducting the experiments at pH 5 and pH 7.4; at pH 5 the formation of the chelate is encouraged while at […] the reaction rate is much slower.
The inhibition was spread between the disks rather than circling each disk as was the case for the PCPH inhibition. Thus, control of pH is a selective factor in controlling the self-assembly of the cytotoxic chelator.

[2] = system: S. typhimurium strain 14028R; experiment: Suspension culture CFU at pH 5 versus pH 7.4; assay type: cell-based; settings: NFZ alone at 10 µM; 20 hours at 37°C in PBS, 1% DMSO
Procedure: This selectivity was also shown in suspension cultures when S. typhimurium strain 14028R was incubated for 20 hours at 37°C in PBS at either pH 5 or pH 7.4 containing 1% DMSO. When no drugs were added, the culture contained 8 x 10⁶ colony forming units (CFU)/ml for pH 5 and 1.5 x 10⁷ CFU/ml for pH 7.4. The self assembling drugs tested in this instance were semicarbazide (SC), […] (NFA) and their reaction product nitrofurazone (NFZ). Either the […] product, or mixtures of various concentrations of the precursors NC + NA were added after inoculation of the medium. While the maximum toxic selectivity (the ratio of CFU/ml at pH 7.4 as compared to CFU/ml at pH 5) observed for, NFZ alone, at 10 µM was about 100, a mixture of 1500 µM SC + 7 µM NFA gave a toxic selectivity ratio of over 8000.

Ox blood erythrocytes [3] = experiment: Erythrocyte killing with or without 1% serum, light scattering; assay type: cell-based; settings: Bos taurus, 1 h, pH 6.6, 896 µM AOG, Decanal 0µM (Table 4), read-out: % cells killed (0% serum)
Ox blood erythrocytes [4] = experiment: Erythrocyte killing with or without 1% serum, hemoglobin release; assay type: cell-based; settings: Bos taurus, 1 h, read-out: cell killing measured by hemaglobin release, 1% Serum
Procedure: (§1) Ox blood erythrocytes were incubated for one hour in PBS at pH 6.6 in the presence or absence of 1% serum at 37°C. […] However, at 4-16 µM DIOG, the percentage of cells killed increased from 4.3 to 60.9. On the other hand, in the absence of serum, 7.2.% cells were killed even without the addition of DIOG, and a steady increase in killing occurred as the DIOG concentration increased, reaching 100% of cells killed at 8 µM.

Ox blood erythrocytes [5] = experiment: Erythrocyte killing with or without 1% serum, light scattering; assay type: cell-based; settings: Bos taurus, Erythrocyte, 1 h, pH 6.6; for mortality at 448 µM: Decanal 0, AOG maintained at 448 µM according to the text (Table 4)
Procedure: as §1
The AOG concentration was maintained at a high level (448 µM) and the decanal concentration varied from 0-16 µM corresponding the previous DIOG concentration range. In this protocol, similar results were obtained for cells incubated in the absence of serum, but in the presence of 1% serum the curve was slightly displaced so that the cells appeared more protected as shown in Table 4.

Compound: O=CCCCCCCCCCCC=O [dodecanedial]
HeLa cell toxicity (HeLa cells): neither is very toxic alone

Compound: CN(Cc1cnc2nc(N)nc(N)c2n1)c1ccc(C(=O)N[C@@H](CCC(=O)O)C(=O)O)cc1 [methotrexate]
half-life of the drug in serum [1]: about 2 hours

Compound: O=Cc1ccccn1 [PC, Pyridine-2-carboxaldehyde]
growth of Monilinia sp (Monilinia sp): substantial growth | toxicity to S. cerevisiae YP52 (S. cerevisiae YP52): nontoxic

Compound: poly-(L-lysine) [poly-(L-lysine) of Mr 3 kd]
toxicity relative to poly-(L-lysine) having Mr of 70 kd (some tumors): less than 1/20

Compound: O=C1CCCCC1 [cyclohexanone]
lysis (Erythrocytes; 20 mM cyclohexanone plus 10 µM AOG alone, no decanal): do not give lysis | lysis (Erythrocytes; cells first exposed to 20 µM AOG for 2 hours, then 20 µM decanal and 20 mM cyclohexanone): Extensive lysis | lysis (Erythrocytes; pretreatment 2 hours with 20 mM cyclohexanone alone, then 20 µM AOG plus 20 µM decanal): extensive lysis | lysis (Erythrocytes; pretreatment 2 hours with 20 mM cyclohexanone plus 20 µM AOG, then 20 µM decanal added): only slow lysis

lysis (human erythrocytes; 28 µM or 80 µM decanal alone, after more than 400 minutes, Figure 2): less than 5%
Compound: CCCCCCCCCC=O [decanal]
increase in cell density (S cerevisiae; 20 µg/ml decanal): 11 fold | percentage of cells intact (HeLa cells): considerably less dramatic decreases

Compound: C(=NNc1ccccn1)c1ccccn1 [PCPH, pyridino-2-carboxaldehyde (2-pyridyl hydrazone)]
growth inhibition of S. typhimurium (S. typhimurium; pH 5): inhibited growth | growth inhibition of S. typhimurium (S. typhimurium; pH 7.4): inhibited growth

Compound: NC(=O)N/N=C/c1ccc([N+](=O)[O-])o1 [NFZ, nitrofurazone]
maximum toxic selectivity (the ratio of CFU/ml at pH 7.4 as compared to CFU/ml at pH 5) [2]: about 100

Compound: NNC(=Nc1ccccc1)NN [DAPG, 1,2-diamino-3-phenyl guanididium iodide]
hemolysis at 3000 µM (human erythrocytes; Homo sapiens, Erythrocyte, pH 7.4, 3 mM DAPG alone, after 24 hours): 18% | time for which erythrocytes are stable (human erythrocytes): at least 24 hours

Compound: NNc1ccccn1 [HP, 2-hydrazino-pyridine]
growth of Monilinia sp (Monilinia sp): substantial growth | toxicity to S. cerevisiae YP52 (S. cerevisiae YP52): nontoxic

Compound: O=C1CCC(=O)CC1 [CHD, cyclohexane-1,4-dione]
hemolysis at 60000 µM (human erythrocytes; Homo sapiens, Erythrocyte, pH 7.4, 60 mM CHD alone, after 24 hours): 18% | time for which erythrocytes are stable (human erythrocytes): at least 24 hours

Compound: O=CCCCCCCCCC=O [DDD, decanedialdehyde, CHO(CH₂)₈CHO]
lysis (human erythrocytes; either alone at 100 µM): did not result in any observable lysis

Compound: CCCCCCCCNC(=N)NN [AOG, N-amino-N'-1-octyl guanidine]
mortality at 896 µM (Ox blood erythrocytes [3]): 6.4% | increase in cell density (S cerevisiae; 88 µg/ml AOG): threefold increase | hemolysis at 896 µM (Ox blood erythrocytes [4]; pH 6.6, 896 µM AOG, Decanal Concentration 0 (Table 5)): 0% | hemolysis at 448 µM (Ox blood erythrocytes [4]; pH 6.6, Decanal Concentration 0, 448 µM AOG according to the text (Table 5), comma separates duplicates): 0% | hemolysis at 28 µM (human erythrocytes; Homo sapiens, Erythrocyte, 400 min, pH 7.4, 28 µM, 100 µM or 200 µM AOG alone, after more than 400 minutes, Figure 2): < 5% | lysis (human erythrocytes; either alone at 100 µM): did not result in any observable lysis | percentage of cells intact (HeLa cells): considerably less dramatic decreases | HeLa cell toxicity (HeLa cells): neither is very toxic alone | mortality at 896 µM (Ox blood erythrocytes [5]; 896 µM AOG, Decanal 0µM (Table 4), read-out: % cells killed (1% serum)): 1.3% | mortality at 448 µM (Ox blood erythrocytes [5]; read-out: % cells killed (0% serum)): 0% | mortality at 448 µM (Ox blood erythrocytes [5]; read-out: % cells killed (1% serum)): 0%

Reference: patent publication EP0603160A2, “Compositions for in-situ active compound assembly” (SCRIPPS CLINIC AND RESEARCH FOUNDATION, priority 1986, dated 1988)
